PMC10992376, “High coenzyme affinity chimeric amine dehydrogenase based on domain engineering” (Bioresources and Bioprocessing, 2022)
Read-outs that look alike come from different tables or passages of the source.

Test system: T1, cFLF-AmDH
T1 construct: gene pdh; KS/NL parents; C-terminal His6; E. coli BL21(DE3)
Assay: NADH oxidation at […] nm, Michaelis-Menten fit
Type: biochemical, Pseudobacillus badius
Settings: 2 M NH4Cl/NH4OH, optimum pH and temperature (table note; Methods: 100 mM NH4Cl/NH4OH, pH 8.5, 30 °C)

Compound	Km (co-substrate NADH, ammonium, read-out: pFPA / Km) [mM]	Km (read-out: NADH / Km, co-substrate pFPA) [mM]
CC(=O)Cc1ccc(F)cc1 [p-FPA]	21.8 ± 2.67	
NC(=O)C1=CN([C@@H]2O[C@H](COP(=O)(O)OP(=O)(O)OC[C@H]3O[C@@H](n4cnc5c(N)ncnc54)[C@H](O)[C@@H]3O)[C@@H](O)[C@H]2O)C=CC1 [NADH]		0.49 ± 0.02
